Laboratory results published in US7714135B2, “Tetrahydropyridothiophenes for the treatment of proliferative diseases such as cancer” (4SC AG, priority 2005, dated 2010).

Assays:
[1] = tested on: RKO (RKOp27) human colon adenocarcinoma cells; assay: Alamar Blue cell viability assay, anti-proliferative/cytotoxic activity on proliferating (uninduced) RKOp27 cells; assay type: cell-based; conditions: RKOp27 subclone without inducer, 72 hours incubation, read-out: IC50 RKO p27 uninduced (proliferating)
Protocol: The anti-proliferative/cytotoxic activity of the compounds described herein, can be tested on subclones of RKO (RKOp27) human colon adenocarcinoma cells (Schmidt et al., Oncogene 19, 2423-2429; 2000) using the Alamar Blue cell viability assay (described in O'Brien et al. Eur J Biochem 267, 5421-5426, 2000). The compounds are dissolved as 20 mM solutions in dimethylsulfoxide (DMSO) and subsequently diluted in semi-logarithmic steps. DMSO dilutions are further diluted 1:100 into Dulbecco's modified Eagle's medium (DMEM) containing 10% fetal calf serum to a final concentration twice as much as the final concentration in the test. RKO subclones are seeded into 96 well flat bottom plates at a density of 4000 cells per well in a volume of 50 μl per well. 24 hours after seeding the 50 μl each of the compound dilutions in DMEM medium are added into each well of the 96 Well plate. Each compound dilution is tested as quadruplicates. Wells containing untreated control cells are filled with 50 μl DMEM medium containing 1% DMSO. The cells are then incubated with the substances for 72 hours at 37° C. in a humidified atmosphere containing 5% carbon dioxide. To determine the viability of the cells, 10 μl of an Alamar Blue solution (Biosource) are added and the fluorescence is measured at an extinction of 544 nm and an emission of 590 nm. For the calculation of the cell viability the emission value from untreated cells is set as 100% viability and the emission rates of treated cells are set in relation to the values of untreated cells. Viabilities are expressed as % values.
The corresponding IC50 values of the compounds for anti-proliferative/cytotoxic activity are determined from the concentration-effect curves.
Representative IC50 values for anti-proliferation/cytotoxicity determined in the mentioned assay follow from the following table A, in which the numbers of the compound correspond to the numbers of the examples.

[2] = tested on: RKO colon adenocarcinoma cells (RKOp27) arrested by the expression of ectopic p27Kip1; assay: Alamar Blue cell viability assay on RKOp27 cells arrested by Ponasterone A-induced p27Kip1 expression (cell cycle specific mode of action); assay type: cell-based; conditions: Homo sapiens, RKOp27 subclone induced with 10 μM Ponasterone A, 72 hours incubation, read-out: IC50 RKO p27 induced (arrested)
Protocol: To determine the cell cycle specific mode of action, subclones of RKO colon adenocarcinoma cells (RKOp27 or RKOp21 as described by Schmidt et al. in Oncogene 19, 2423-2429; 2000) are seeded into 96 well flat bottom plates at a density of 16000 cells per well in a volume of 50 μl per well in DMEM growth medium with 10% FCS containing 10 μM Ponasterone A. 24 hours after seeding the 50 μl each of the compound dilutions in DMEM medium are added into each well of the 96 Well plate. Each compound dilution is tested as quadruplicates. Wells containing untreated control cells are filled with 50 μl DMEM medium containing 1% DMSO. The cells are then incubated with the substances for 72 hours at 37° C. in a humidified atmosphere containing 5% carbon dioxide. To determine the viability of the cells, 10 μl of an Alamar Blue solution (Biosource) are added and the fluorescence was measured at an extinction of 544 nm and an emission of 590 nm. For the calculation of the cell viability the emission value from untreated cells is set as 100% viability and the emission rates of treated cells are set in relation to the values of untreated cells. Viabilities are expressed as % values. Viability is compared of proliferating cells grown in the absence of the inducer Ponasterone A, versus viability of cells arrested by the expression of ectopic p27Kip1 induced by Ponasterone A.

IC50 [2] [µM] | Compound | IC50 [1] [µM]
> 100 | CCOC(=O)N1CCc2c(sc(NC(=O)CCn3nccc3C)c2C#N)C1 [Example 20, 3-Cyano-2-[3-(5-methyl-pyrazol-1-yl)-propanoylamino]-4,7-dihydro-5H-thieno[2,3-c]pyridine-6-carboxylic acid ethyl ester] | 0.3 to 2
> 100 | CCOC(=O)N1CCc2c(sc(NC(=O)CCC3CCCO3)c2C#N)C1 (stereo not shown) [Example 21, 3-Cyano-2-(3-tetrahydro-furan-2-yl-propanoylamino)-4,7-dihydro-5H-thieno[2,3-c]pyridine-6-carboxylic acid ethyl ester] | ≤ 0.3
> 100 | CC(C)(C)OC(=O)N1CCc2c(sc(NC(=O)CCc3ccccc3)c2C#N)C1 [Example 22, 3-Cyano-2-(3-phenyl-propanoylamino)-4,7-dihydro-5H-thieno[2,3-c]pyridine-6-carboxylic acid tert-butyl ester] | ≤ 0.3
> 100 | CCOC(=O)N1CCc2c(sc(NC(=O)CCc3ccccc3Br)c2C#N)C1 [Example 23, 2-[3-(2-Bromo-phenyl)-propanoylamino]-3-cyano-4,7-dihydro-5H-thieno[2,3-c]pyridine-6-carboxylic acid ethyl ester] | ≤ 0.3
> 100 | COCCOC(=O)N1CCc2c(sc(NC(=O)CCc3ccccc3)c2C#N)C1 [Example 24, 3-Cyano-2-(3-phenyl-propanoylamino)-4,7-dihydro-5H-thieno[2,3-c]pyridine-6-carboxylic acid 2-methoxy-ethyl ester] | ≤ 0.3
> 100 | N#Cc1c(NC(=O)CCc2ccccc2)sc2c1CCN(C(=O)OCCc1ccccn1)C2 [Example 26, 3-Cyano-2-(3-phenyl-propanoylamino)-4,7-dihydro-5H-thieno[2,3-c]pyridine-6-carboxylic acid 2-pyridin-2-yl-ethyl ester] | ≤ 0.3
> 100 | N#Cc1c(NC(=O)CCc2ccccc2)sc2c1CCN(C(=O)OCc1ccccn1)C2 [Example 27, 3-Cyano-2-(3-phenyl-propanoylamino)-4,7-dihydro-5H-thieno[2,3-c]pyridine-6-carboxylic acid pyridin-2-ylmethyl ester] | ≤ 0.3
> 100 | N#Cc1c(NC(=O)CCc2ccccc2)sc2c1CCN(C(=O)OCc1cccnc1)C2 [Example 28, 3-Cyano-2-(3-phenyl-propanoylamino)-4,7-dihydro-5H-thieno[2,3-c]pyridine-6-carboxylic acid pyridin-3-ylmethyl ester] | ≤ 0.3
> 100 | N#Cc1c(NC(=O)CCc2ccccc2)sc2c1CCN(C(=O)OCc1ccncc1)C2 [Example 29, 3-Cyano-2-(3-phenyl-propanoylamino)-4,7-dihydro-5H-thieno[2,3-c]pyridine-6-carboxylic acid pyridin-4-ylmethyl ester] | ≤ 0.3
> 100 | CC1(C)OCC(COC(=O)N2CCc3c(sc(NC(=O)CCc4ccccc4)c3C#N)C2)O1 (stereo not shown) [Example 30, 3-Cyano-2-(3-phenyl-propanoylamino)-4,7-dihydro-5H-thieno[2,3-c]pyridine-6-carboxylic acid 2,2-dimethyl-[1,3]dioxolan-4-ylmethyl ester] | ≤ 0.3
> 100 | N#Cc1c(NC(=O)CCc2ccccc2)sc2c1CCN(C(=O)OCC(O)CO)C2 (stereo not shown) [Example 31, 3-Cyano-2-(3-phenyl-propanoylamino)-4,7-dihydro-5H-thieno[2,3-c]pyridine-6-carboxylic acid 2,3-dihydroxy-propyl ester] | ≤ 0.3
> 100 | CCOC(=O)N1CCc2c(sc(NC(=O)CCc3cccc4c3OCO4)c2C#N)C1 [Example 32, 2-(3-Benzo[1,3]dioxol-4-yl-propanoylamino)-3-cyano-4,7-dihydro-5H-thieno[2,3-c]pyridine-6-carboxylic acid ethyl ester] | ≤ 0.3
> 100 | CCOC(=O)N1CCc2c(sc(NC(=O)CCc3cccc4c3OC(F)(F)O4)c2C#N)C1 [Example 33, 3-Cyano-2-[3-(2,2-difluoro-benzo[1,3]dioxol-4-yl)-propanoylamino]-4,7-dihydro-5H-thieno[2,3-c]pyridine-6-carboxylic acid ethyl ester] | 0.3 to 2
> 100 | CCOC(=O)N1CCc2c(sc(NC(=O)CCc3cccc4c3OCCO4)c2C#N)C1 [Example 34, 3-Cyano-2-(3-2,3-dihydro-benzo[1,4]dioxin-5-yl-propanoylamino)-4,7-dihydro-5H-thieno[2,3-c]pyridine-6-carboxylic acid ethyl ester] | 0.3 to 2
≥ 40 | CCOC(=O)N1CCc2c(sc(NC(=O)CCc3cncnc3)c2C#N)C1 [Example 35, 3-Cyano-2-(3-pyrimidin-5-yl-propanoylamino)-4,7-dihydro-5H-thieno[2,3-c]pyridine-6-carboxylic acid ethyl ester] | 0.3 to 2
> 100 | CCOC(=O)N1CCc2c(sc(NC(=O)CCc3ccccn3)c2C#N)C1 [Example 36, 3-Cyano-2-(3-pyridin-2-yl-propanoylamino)-4,7-dihydro-5H-thieno[2,3-c]pyridine-6-carboxylic acid ethyl ester] | ≤ 0.3
≥ 40 | COCCOC(=O)N1CCc2c(sc(NC(=O)CCc3cccnc3)c2C#N)C1 [Example 37, 3-Cyano-2-(3-pyridin-3-yl-propanoylamino)-4,7-dihydro-5H-thieno[2,3-c]pyridine-6-carboxylic acid 2-methoxy-ethyl ester] | 0.3 to 2
> 100 | N#Cc1c(NC(=O)CCc2cccnc2)sc2c1CCN(C(=O)OCc1ccccn1)C2 [Example 38, 3-Cyano-2-(3-pyridin-3-yl-propanoylamino)-4,7-dihydro-5H-thieno[2,3-c]pyridine-6-carboxylic acid pyridin-2-ylmethyl ester] | 0.3 to 2
> 100 | N#Cc1c(NC(=O)CCc2cccnc2)sc2c1CCN(C(=O)OCc1cccnc1)C2 [Example 39, 3-Cyano-2-(3-pyridin-3-yl-propanoylamino)-4,7-dihydro-5H-thieno[2,3-c]pyridine-6-carboxylic acid pyridin-3-ylmethyl ester] | 0.3 to 2
≥ 40 | N#Cc1c(NC(=O)CCc2cccnc2)sc2c1CCN(C(=O)OCc1ccncc1)C2 [Example 40, 3-Cyano-2-(3-pyridin-3-yl-propanoylamino)-4,7-dihydro-5H-thieno[2,3-c]pyridine-6-carboxylic acid pyridin-4-ylmethyl ester] | 0.3 to 2
> 100 | COCCOC(=O)N1CCc2c(sc(NC(=O)CCc3ccco3)c2C#N)C1 [Example 41, 3-Cyano-2-(3-furan-2-yl-propanoylamino)-4,7-dihydro-5H-thieno[2,3-c]pyridine-6-carboxylic acid 2-methoxy-ethyl ester] | ≤ 0.3
> 100 | N#Cc1c(NC(=O)CCc2ccco2)sc2c1CCN(C(=O)OCc1ccccn1)C2 [Example 42, 3-Cyano-2-(3-furan-2-yl-propanoylamino)-4,7-dihydro-5H-thieno[2,3-c]pyridine-6-carboxylic acid pyridin-2-ylmethyl ester] | ≤ 0.3
> 100 | N#Cc1c(NC(=O)CCc2ccco2)sc2c1CCN(C(=O)OCc1cccnc1)C2 [Example 43, 3-Cyano-2-(3-furan-2-yl-propanoylamino)-4,7-dihydro-5H-thieno[2,3-c]pyridine-6-carboxylic acid pyridin-3-ylmethyl ester] | ≤ 0.3
